Results taken from patent US20250352559A1, “Transdermal Delivery Composition for Delivery of at least one Glucose Controlling Agent, and Method of Delivering at least one Glucose Controlling Agent” (Skinvisible Pharmaceuticals, Inc., priority 2024, published 2025).

What was measured:
3T3-LI preadipocytes = conditions: in vitro; cited from earlier work
[1] = test system: animal models of diet-induced obesity; conditions: cited from earlier work
[2] = preclinical studies, therapeutic doses; cited from earlier work
[3] = cited from earlier work
[4] = Franz Cell study, rate of diffusion across a cellulose membrane; assay type: in vitro ADME; conditions: after 6 hours, transdermal formulation of 1% THCV
Description: A transdermal formulation of 1% THCV was prepared according to Table 1. The THCV formulation was subjected to a Franz Cell study, measuring the rate of diffusion across a cellulose membrane. As illustrated by the results, after 6 hours, 6.08 mg of THCV diffused across the cellulose membrane. The total dose of THCV applied to the membrane was 11.63 mg, and this calculates to a delivered dose of 52.3% of the THCV which is unexpected.

Molecule: CCCCCCc1nc(-c2ccc(Cl)cc2)n(-c2ccc(Cl)cc2Cl)n1 [LH-21]
- adipocyte differentiation and lipid accumulation (3T3-LI preadipocytes): inhibit adipocyte differentiation and lipid accumulation
- body weight gain, adipose tissue mass, glucose tolerance and insulin sensitivity [1]: reduce body weight gain, decrease adipose tissue mass, and improve glucose tolerance and insulin sensitivity
- safety profile and tolerability [2]: favorable safety profiles and are well-tolerated at therapeutic doses

Molecule: CCCCCc1cc(O)cc(O)c1 [Olivetol]
- adipocyte differentiation and lipid accumulation (3T3-LI preadipocytes): inhibit adipocyte differentiation and lipid accumulation
- body weight gain, adipose tissue mass, glucose tolerance and insulin sensitivity [1]: reduce body weight gain, decrease adipose tissue mass, and improve glucose tolerance and insulin sensitivity
- safety profile and tolerability [2]: favorable safety profiles and are well-tolerated at therapeutic doses

Molecule: Cc1c(C(=O)NN2CCCCC2)nn(-c2ccc(Cl)cc2Cl)c1-c1ccc(Cl)cc1 [rimonabant]
- body weight gain, adipose tissue mass, glucose tolerance and insulin sensitivity [1]: reduce body weight gain, decrease adipose tissue mass, and improve glucose tolerance and insulin sensitivity
- clinical safety ([3]; marketed use, later withdrawn): increased risk of psychiatric adverse effects

Molecule: C[C@H](NC(=O)C(C)(C)Oc1ccc(C(F)(F)F)cn1)[C@@H](Cc1ccc(Cl)cc1)c1cccc(C#N)c1 [taranabant]
- body weight gain, adipose tissue mass, glucose tolerance and insulin sensitivity [1]: reduce body weight gain, decrease adipose tissue mass, and improve glucose tolerance and insulin sensitivity
- body weight and metabolic parameters in clinical trials ([3]; clinical trials for the treatment of obesity): promising results in reducing body weight and improving metabolic parameters

Molecule: Tetrahydrocannabivarin [THCV]
- delivered dose of the THCV ([4]; 6.08 mg of 11.63 mg applied): 52.3%
- THCV diffused across the cellulose membrane ([4]; total dose applied 11.63 mg): 6.08 mg
